Test results as given in PMC4342496 (The Journal of Biological Chemistry, 2015).
Like-named read-outs stand apart in the source and are kept apart here.

Key:
CjIMPDH [1] = biological target: T1, CjIMPDH (Campylobacter jejuni, UniProt Q0P9J4); test: steady-state kinetics, A340; assay type: biochemical; settings: substrate inhibition by NAD+; pH 8.0, 25 °C
T1 construct: gene guaB; full-length wild type, N-terminal His6 tag, pMCSG7, E. coli; tetramer
T1 sequence (Q0P9J4 1-485): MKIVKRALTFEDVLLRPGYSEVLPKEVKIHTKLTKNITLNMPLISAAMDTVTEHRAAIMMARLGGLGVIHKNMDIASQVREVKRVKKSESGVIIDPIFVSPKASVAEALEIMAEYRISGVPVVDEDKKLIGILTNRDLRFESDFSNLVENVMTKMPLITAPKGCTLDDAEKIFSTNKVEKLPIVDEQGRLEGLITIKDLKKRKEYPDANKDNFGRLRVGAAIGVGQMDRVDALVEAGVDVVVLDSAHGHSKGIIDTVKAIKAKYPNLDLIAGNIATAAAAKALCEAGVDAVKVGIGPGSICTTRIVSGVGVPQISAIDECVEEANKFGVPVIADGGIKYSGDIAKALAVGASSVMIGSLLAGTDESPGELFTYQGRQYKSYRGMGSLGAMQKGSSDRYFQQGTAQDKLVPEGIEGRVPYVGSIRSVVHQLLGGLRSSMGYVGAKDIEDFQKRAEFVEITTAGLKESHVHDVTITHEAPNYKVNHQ
Excerpt: steady-state kinetics, A340 on CjIMPDH

BaIMPDH = biological target: T2, BaIMPDH (Bacillus anthracis, UniProt A0A6L8P2U9); assay type: biochemical
T2 construct: gene guaB

CjIMPDH [2] = biological target: T1, CjIMPDH; test: NADH production, A340; assay type: biochemical
Excerpt: NADH production, A340 on CjIMPDH

CpIMPDH = biological target: T3, CpIMPDH (Cryptosporidium parvum, UniProt Q8T6T2); test: NADH production, A340; assay type: biochemical
T3 construct: gene 56k.02; recombinant
T3 sequence (Q8T6T2 1-400): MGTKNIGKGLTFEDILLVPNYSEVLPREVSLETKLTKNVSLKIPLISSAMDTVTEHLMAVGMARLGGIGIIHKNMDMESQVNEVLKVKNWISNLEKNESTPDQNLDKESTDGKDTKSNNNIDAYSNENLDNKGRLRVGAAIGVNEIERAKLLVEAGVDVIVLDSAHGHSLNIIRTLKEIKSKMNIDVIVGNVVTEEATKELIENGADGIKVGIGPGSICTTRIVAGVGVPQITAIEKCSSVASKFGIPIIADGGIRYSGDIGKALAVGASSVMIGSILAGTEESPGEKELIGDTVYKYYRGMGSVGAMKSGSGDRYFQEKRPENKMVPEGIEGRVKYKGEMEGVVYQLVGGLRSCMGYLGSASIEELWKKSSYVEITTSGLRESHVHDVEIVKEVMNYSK
Excerpt: NADH production, A340 on CpIMPDH

CjIMPDHΔS = biological target: T4, CjIMPDHΔS (Campylobacter jejuni, UniProt Q0P9J4, INS91G/DEL92-195); test: NADH production, A340; assay type: biochemical; settings: pH 8.0, 1 mM IMP, NAD+ about 2.5 x Km, 10 min preincubation, room temperature
T4 construct: gene guaB
T4 sequence (Q0P9J4 1-485 INS91G/DEL92-195): T1 sequence (Q0P9J4 1-485)
Excerpt: NADH production, A340 on CjIMPDHΔS

VcIMPDH = biological target: T5, VcIMPDH (Vibrio cholerae, UniProt Q9KTW3); test: NADH production, A340; assay type: biochemical; settings: read-out: IC50 / 1
T5 construct: gene guaB; full-length wild type, N-terminal His6 tag, recombinant E. coli; tetramer
T5 sequence (Q9KTW3 1-489): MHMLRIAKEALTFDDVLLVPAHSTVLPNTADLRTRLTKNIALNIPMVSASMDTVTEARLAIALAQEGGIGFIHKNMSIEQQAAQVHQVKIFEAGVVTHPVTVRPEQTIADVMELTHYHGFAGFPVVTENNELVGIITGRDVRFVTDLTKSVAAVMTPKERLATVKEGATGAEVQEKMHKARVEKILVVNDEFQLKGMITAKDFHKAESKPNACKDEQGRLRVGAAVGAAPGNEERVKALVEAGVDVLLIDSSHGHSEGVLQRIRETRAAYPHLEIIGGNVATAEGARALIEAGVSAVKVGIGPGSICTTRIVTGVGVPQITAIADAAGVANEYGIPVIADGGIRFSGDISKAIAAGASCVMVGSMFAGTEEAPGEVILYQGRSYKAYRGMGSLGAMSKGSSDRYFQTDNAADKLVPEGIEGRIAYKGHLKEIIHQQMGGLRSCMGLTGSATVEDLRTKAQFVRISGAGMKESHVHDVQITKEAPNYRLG
Excerpt: NADH production, A340 on VcIMPDH

[3] = system: NC(=O)c1ccc[n+]([C@@H]2O[C@H](COP(=O)(O)OP(=O)(O)OC[C@H]3O[C@@H](n4cnc5c(N)ncnc54)[C@H](O)[C@@H]3O)[C@@H](O)[C@H]2O)c1; test: purified protein; settings: pH 8.0; 25.0 °C

T2 sequence (A0A6L8P2U9 1-487 limits assumed): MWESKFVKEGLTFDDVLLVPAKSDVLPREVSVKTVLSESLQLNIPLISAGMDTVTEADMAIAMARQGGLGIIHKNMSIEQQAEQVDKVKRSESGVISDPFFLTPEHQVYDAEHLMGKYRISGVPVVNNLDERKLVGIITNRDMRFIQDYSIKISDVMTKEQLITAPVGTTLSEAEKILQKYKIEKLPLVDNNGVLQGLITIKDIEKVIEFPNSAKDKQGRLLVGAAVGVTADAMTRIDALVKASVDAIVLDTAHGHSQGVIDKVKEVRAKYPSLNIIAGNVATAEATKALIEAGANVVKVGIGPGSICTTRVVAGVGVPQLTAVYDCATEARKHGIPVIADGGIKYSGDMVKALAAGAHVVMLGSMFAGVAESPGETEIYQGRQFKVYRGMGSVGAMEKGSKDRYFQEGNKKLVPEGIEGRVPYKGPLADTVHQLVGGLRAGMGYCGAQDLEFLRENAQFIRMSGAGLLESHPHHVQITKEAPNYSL

NC(=O)c1ccc[n+]([C@@H]2O[C@H](COP(=O)(O)OP(=O)(O)OC[C@H]3O[C@@H](n4cnc5c(N)ncnc54)[C@H](O)[C@@H]3O)[C@@H](O)[C@H]2O)c1 [NAD^+]
NAD^+ Kii (CjIMPDH [1]): 20 ± 2 mM | NAD^+ Kii (BaIMPDH): 3.9 ± 0.8 mM

C[C@@H](Oc1cc[n+]([O-])c2ccccc12)c1cn(-c2ccc(Cl)cc2)nn1 [compound 1, 4-[(1R)-[1-(4-chlorophenyl)-1H-1,2,3-triazol-4yl]ethoxy]quinoline-1-oxide]
IC50 (CjIMPDH [2]; read-out: IC50 / 1): 0.14 ± 0.03 µM | IC50 (CpIMPDH; read-out: IC50 / 1): 0.009 ± 0.002 µM | IC50 (CjIMPDHΔS; read-out: IC50 / 1): 0.107 ± 0.008 µM

Cn1nc(CC(=O)Nc2ccc3oc4c(c3c2)CCCC4)c2ccccc2c1=O [compound 3, 3,4-dihydro-3-methyl-4-oxo-N-(6,7,8,9-tetrahydro2-dibenzofuranyl)-1-phthalazineacetamide]
IC50 (VcIMPDH): > 5 µM | IC50 (CjIMPDH [2]; read-out: IC50 / 3): 0.169 ± 0.02 µM | IC50 (CpIMPDH; read-out: IC50 / 3): 0.024 ± 0.006 µM | IC50 (CjIMPDHΔS; read-out: IC50 / 3): 0.2 ± 0.02 µM

C=C(C)c1cccc(C(C)(C)NC(=O)Nc2ccc(Br)cc2)c1 [compound 4]
IC50 (VcIMPDH): > 5 µM | IC50 (CjIMPDH [2]; read-out: IC50 / 4): 0.036 ± 0.008 µM | IC50 (CpIMPDH; read-out: IC50 / 4): 0.011 ± 0.005 µM | IC50 (CjIMPDHΔS; read-out: IC50 / 4): 0.067 ± 0.013 µM

C/C(=N\O)c1cccc(C(C)(C)NC(=O)Nc2ccc(Br)cc2)c1 [compound 6]
IC50 (VcIMPDH): > 5 µM | IC50 (CjIMPDH [2]; read-out: IC50 / 6): 0.029 ± 0.004 µM | IC50 (CpIMPDH; read-out: IC50 / 6): 0.008 ± 0.002 µM | IC50 (CjIMPDHΔS; read-out: IC50 / 6): 0.046 ± 0.004 µM

C[C@H](Oc1cccc2ccccc12)C(=O)Nc1ccc2oc(-c3ccncc3)nc2c1 [compound 7, 2-(1-naphthalenyloxy)-N-[2-(4-pyridinyl)-5-benzoxazolyl)-(2S)-propanamide]
IC50 (VcIMPDH): > 5 µM | IC50 (CjIMPDH [2]; read-out: IC50 / 7): 0.013 ± 0.002 µM | IC50 (CjIMPDHΔS; read-out: IC50 / 7): 0.019 ± 0.002 µM

BaIMPDH (Bacillus anthracis)
Km [3]: 550 ± 100 µM
